Earlier results, collected in US20240090499A1, “PRESERVATIVE COMPOSITIONS” (Dermegen Inc., priority 2022, published 2024).
Read-outs that look alike come from different tables or passages of the source.

Tested on: fungi (molds)
Conditions: ingredient on its own

CCCCCCCC(=O)OCC(O)CO (stereo not drawn) [glyceryl caprylate]
anti-fungal activity as known: weak preservatives against molds

polylysine
anti-fungal activity as known: only weakly anti-fungal
anti-fungal activity as known (listed as Polylysine): weak preservative against fungal microorganisms such as molds
